Assay results from PMC12040169 (PLOS Biology, 2025).

Assay: in vitro
Settings: human, hela cells, % viability

Compound | viability at 28.5 h, 10 µM | viability at 28.5 h, 10 µM (bulk resorufin, single well)
CC(=O)N1CCC(C(=O)NC(=O)NCc2ccc(F)cc2)CC1 [CBK034834] | 107% | 
O=C(NCc1ccc(F)cc1)NC(=O)C1CCN(CCc2ccc(Br)cc2)CC1 [CBK034836] | 95.2% | 
COc1ccc(CNC(=O)NC(=O)C2CCN(C(C)=O)CC2)c(OC)c1 [CBK034839] | 96.9% | 
CC(=O)N1CCC(C(=O)NC(=O)NC2CCCCC2)CC1 [CBK034847] | 99.4% | 
CC(=O)N1CCC(C(=O)NC(=O)NCCc2ccccc2)CC1 [CBK034851] | 96.9% | 
O=C(NCc1ccccc1)NC(=O)C1CCN(CCCOc2cccc3ccccc23)CC1 [CBK034856] | 84.6% | 
COc1cc(CNC(=O)NC(=O)C2CCN(CCCc3ccc(Cl)c(Cl)c3)CC2)cc(OC)c1OC [CBK034858] | 107% | 
COc1cccc(CCNC(=O)NC(=O)C2CCN(S(C)(=O)=O)CC2)c1 [CBK034860] | 99% | 
Cc1ccccc1NC(=O)NC(=O)C1CCN(S(C)(=O)=O)CC1 [CBK034862] | 87.7% | 
Cc1ccc(NC(=O)NC(=O)C2CCN(S(C)(=O)=O)CC2)cc1 [CBK034863] | 93.4% | 
Cn1cc(CCN2CCC(C(=O)NC(=O)Nc3ccccc3)CC2)c2ccccc21 [CBK034867] | 83.6% | 
COc1ccc(CNC(=O)NC(=O)C2CCN(CCCc3ccc4c(c3)OCO4)CC2)c(OC)c1 [CBK034875] | 100% | 
CCOc1ccccc1NC(=O)NC(=O)C1CCN(C(C)c2ccc(Cl)cc2)CC1 (stereo not shown) [CBK034899] | 98.4% | 
CCOc1ccccc1NC(=O)NC(=O)C1CCN(CCCc2ccc3c(c2)OCO3)CC1 [CBK034924] | 88.6% | 
CC(C)NC(=O)NC(=O)C1CCN(CCCc2ccc(Cl)c(Cl)c2)CC1 [CBK034947] | 89.8% | 
Cc1ccc2[nH]cc(CCN3CCC(C(=O)NC(=O)Nc4ccccc4F)CC3)c2c1 [CBK034974] | 93% | 
Cc1ccc(NC(=O)NC(=O)C2CCN(CCc3ccc(F)cc3)CC2)cc1Cl [CBK035047] | 89.5% | 
Cc1ccc(NC(=O)NC(=O)C2CCN(CCCc3ccc(F)cc3)CC2)cc1Cl [CBK035057] | 94.2% | 
O=C(NC(=O)C1CCN(CCc2cccc(C(F)(F)F)c2)CC1)Nc1cccc2ccccc12 [CBK035070] | 92.2% | 
COc1ccc(Cl)cc1NC(=O)NC(=O)C1CCN(CCOc2cccc3ccccc23)CC1 [CBK035116] | 90.9% | 
O=C(NC(=O)C1CCN(CCc2ccc3c(c2)CCO3)CC1)Nc1ccccc1Cl [CBK035147] | 84.3% | 
CCNC(=O)NC(=O)C1CCN(CCc2ccc(O)c(OC)c2)CC1 [CBK035184] | 102% | 

Compound | viability at 28.5 h, 10 µM | viability at 28.5 h, 10 µM (bulk resorufin, single well)
O=C(NC(=O)C1CCN(CC2COc3ccccc3O2)CC1)Nc1ccccc1 (stereo not shown) [CBK035267] | 92.4% | 
COc1cc(CCN2CCC(c3nc(-c4ccccc4)c4ccccn34)CC2)cc(OC)c1OC [CBK035278] | 91% | 
Clc1ccc(-c2nc(C3CCN(CCc4ccccc4)CC3)n3ccccc23)cc1 [CBK035316] | 90.7% | 
COc1cccc(-c2nc(C3CCN(CCc4ccc(F)cc4)CC3)n3ccccc23)c1 [CBK035373] | 94.7% | 
c1ccc(-c2nc(C3CCNCC3)n3ccncc23)cc1 [CBK035434] | 100% | 
NCCc1nc(-c2ccccc2)c2cnccn12 [CBK035705] | 101% | 
CNCCc1nc(-c2cccs2)c2ccccn12 [CBK035905] | 94.5% | 
CNCCc1nc(-c2ccc(F)cc2)c2cnccn12 [CBK035927] | 90.7% | 
CS(=O)(=O)N1CCC(c2nc(-c3ccc(C(F)(F)F)cc3)c3ccccn23)CC1 [CBK036006] | 86.4% | 
COc1ccn2c(CCCN(C)C3Cc4ccccc4C3)nc(-c3ccc4c(c3)OCO4)c2c1 [CBK036303] | 100% | 
COC(=O)c1cccc2c3c(n(Cc4ccccc4)c12)CCCC3=O [CBK036304] |  | 94.7%
CN1CCC(Oc2ncccc2OCc2ccccc2)CC1 [CBK036311] | 97.4% | 
Cn1cc(-c2ccccc2CN2CCCC2)c2onc(-c3ccccc3)c2c1=O [CBK036319C] | 115% | 
CCCCCNC(=N)NC1Cc2ccccc2C1 [CBK036321T] | 98.8% | 
O=C(Nc1ccccc1N1CCCNCC1)c1ccnc2ccccc12 [CBK036325T] | 83.4% | 
CCOc1ccsc1C(=O)Nc1cc2ccccc2c(N2CCNCC2)n1 [CBK036341T] | 99.3% | 
CCOc1ccsc1C(=O)Nc1ccccc1N1CCCNCC1 [CBK036354T] | 95.7% | 
O=C(NCc1ccc(OC2CCNCC2)cc1)c1cnccn1 [CBK036359T] | 104% | 
Cn1cccc1C(=O)NCc1ccc(OC2CCNCC2)cc1 [CBK036360T] | 93% | 
COc1ccc(C(=O)Nc2cncc(OC3CCNCC3)n2)cc1 [CBK036370T] | 94.4% | 
N#Cc1ccc(C(=O)Nc2cncc(OC3CCNCC3)n2)cc1 [CBK036371T] | 90.6% | 
Cc1cc(C)cc(S(=O)(=O)c2ccc3ccnc(N4CCCNCC4)c3c2)c1 [CBK036413C] | 87.1% | 

Compound | viability at 28.5 h, 10 µM | viability at 28.5 h, 10 µM (bulk resorufin, single well)
O=S(=O)(c1ccc(Cl)cc1)c1ccc2ccnc(N3CCCNCC3)c2c1 [CBK036416C] | 82.9% | 
COc1ccc([C@@]23CC[C@@H](NC(=O)Nc4cccc(C#N)c4)C[C@@H]2N(C)CC3)cc1OC [CBK036448T] | 103% | 
COc1ccc([C@@]23CC[C@@H](NC(=O)Nc4ccc(OC(F)(F)F)cc4)C[C@@H]2N(C)CC3)cc1OC [CBK036455T] | 82.2% | 
COc1ccc([C@@]23CC[C@@H](NC(=O)Nc4ccc(F)cc4)C[C@@H]2N(C)CC3)cc1OC [CBK036458T] | 93.5% | 
COc1ccc([C@@]23CC[C@@H](NC(=O)Nc4cccc(SC)c4)C[C@@H]2N(C)CC3)cc1OC [CBK036459T] | 91.1% | 
COc1ccc(NC(=O)N[C@@H]2CC[C@@]3(c4ccc(OC)c(OC)c4)CCN(C)[C@H]3C2)c(C)c1 [CBK036460T] | 97.2% | 
COc1ccc([C@@]23CC[C@@H](NC(=O)Nc4ccc(C(C)(C)C)cc4)C[C@@H]2N(C)CC3)cc1OC [CBK036469T] | 92% | 
COc1ccc([C@@]23CC[C@@H](NC(=O)Nc4cc(C)c(C)cc4[N+](=O)[O-])C[C@@H]2N(C)CC3)cc1OC [CBK036478T] | 67.8% | 
O=S(=O)(c1ccc(Cl)c(Cl)c1)c1ccc2nccc(N3CCNCC3)c2c1 [CBK036497C] | 84.8% | 
COc1ccc([C@@]23CC[C@@H](NC(=O)Nc4cc(C)ccc4F)C[C@@H]2N(C)CC3)cc1OC [CBK036509T] | 102% | 
COc1cc(C)c(NC(=O)c2cnc(-c3ccc(F)cc3)c(-c3ccncc3)c2)cc1OC [CBK036575] | 97.5% | 
OCCNc1nccnc1-c1ccoc1 [CBK036580] | 106% | 
CN(C)C(=O)c1cccc(-c2nccnc2NCCO)c1 [CBK036582] | 90.3% | 
CN(C)CCN1CCN(c2nc(-c3ccc4[nH]ccc4c3)cn3ccnc23)CC1 [CBK036587] | 102% | 
CC(=O)Nc1cccc(-c2nccnc2N2CCCCC2CCO)c1 (stereo not shown) [CBK036591] | 101% | 
c1csc(CNc2nccnc2-c2ccoc2)c1 [CBK036599] | 107% | 
c1csc(CNc2nccnc2-c2cccs2)c1 [CBK036602] | 92.6% | 
CC(=O)Nc1cccc(-c2cn3ccnc3c(N[C@@H](CO)C(C)C)n2)c1 [CBK036605] | 106% | 
CCC(CO)Nc1nccnc1-c1ccsc1 (stereo not shown) [CBK036606] | 107% | 
CCC(CO)Nc1nccnc1-c1ccc(CO)cc1 (stereo not shown) [CBK036607] | 93% | 
COc1cc(Nc2nc(-c3cccc4ccccc34)cn3ccnc23)cc(OC)c1OC [CBK036608] | 96.1% | 
OCCN(CCO)c1nccnc1-c1ccccc1F [CBK036610] | 106% | 

Compound | viability at 28.5 h, 10 µM | viability at 28.5 h, 10 µM (bulk resorufin, single well)
CN1CCN(c2nccnc2-c2cccnc2)CC1 [CBK036612] | 89.8% | 
CC(=O)c1ccc(-c2cc(C(=O)NCCc3cccnc3)cnc2-c2ccc(F)cc2)s1 [CBK036614] | 102% | 
Clc1cccc(CNc2nccnc2-c2ccoc2)c1 [CBK036616] | 105% | 
c1coc(CNc2nccnc2-c2cccs2)c1 [CBK036618] | 85.5% | 
COc1ccc(-c2cc(C(=O)Nc3ccc(OC(F)(F)F)cc3)cnc2-c2ccccc2)cn1 [CBK036621] | 79.2% | 
CC(=O)c1ccc(-c2cc(C(=O)Nc3ccc4c(c3)OCCO4)cnc2-c2ccc(Cl)cc2)s1 [CBK036627] | 105% | 
c1cnc(-c2ccoc2)c(NCCCN2CCOCC2)n1 [CBK036631] | 95.3% | 
COc1ccc(-c2cc(C(=O)N[C@@H](C)c3ccccc3)cnc2-c2cccc(C)c2)cc1 [CBK036635] | 105% | 
COc1ccc(-c2cc(C(=O)N3CCN(C(C)=O)CC3)cnc2-c2ccccc2)cn1 [CBK036637] | 101% | 
COc1ncc(-c2nccnc2N2CCCC2CO)c(OC)n1 (stereo not shown) [CBK036638] | 92.8% | 
CC(C)[C@@H](CO)Nc1nccnc1-c1ccc(CN)cc1 [CBK036640] | 104% | 
NC(=O)c1ccc(-c2nccnc2NCCc2ccncc2)cc1 [CBK036644] | 97.1% | 
CC(=O)NCCNC(=O)c1cnc(-c2ccc(Cl)cc2)c(-c2ccc(O)cc2)c1 [CBK036647] | 101% | 
COc1ccc(-c2cc(C(=O)NCCc3c[nH]c4ccccc34)cnc2-c2ccc(F)cc2)cn1 [CBK036649] | 95.2% | 
CN(C)C(=O)c1cccc(-c2nccnc2NCc2cccc([N+](=O)[O-])c2)c1 [CBK036651] | 94.3% | 
Cc1cccc(-c2ncc(NC(=O)c3cccc(N(C)C)c3)nc2-c2ccco2)c1 [CBK036654] | 103% | 
CC(C)[C@H](CO)NC(=O)c1cnc(-c2ccc(Cl)cc2)c(-c2ccco2)c1 [CBK036658] | 108% | 
CC(=O)Nc1ccc(NC(=O)c2cnc(-c3cccc(C)c3)c(-c3ccncc3)c2)cc1C(F)(F)F [CBK036660] | 49.6% | 
CS(=O)(=O)CCNC(=O)c1cnc(-c2cccc(C(F)(F)F)c2)c(-c2ccncc2)c1 [CBK036661] | 105% | 
